The target of assay [1] is T1, SARS-CoV-2 M^Pro (Severe acute respiratory syndrome coronavirus 2, UniProt P0DTD1). As to conditions: read-out: IC50 against M^Pro; previously published inhibitors; cited from earlier work.
Assay [2] has as its target M^Pro-eGFP fusion protein transiently expressed in 293T cells (Severe acute respiratory syndrome coronavirus 2, UniProt P0DTD1). In kind it is cell-based, SARS-CoV-2. The conditions noted are these: read-out: Cellular EC50.
In assay [3] the target is T1, SARS-CoV-2 M^Pro. Kind of assay: In vitro M^Pro inhibition potency (enzymatic IC50, fluorogenic substrate Sub3). The conditions noted are these: 20 nM M^Pro, 10 μM Sub3, 30 min preincubation, pH 7.6. In kind it is biochemical.

pEC50, pIC50: −log10 of the molar value. Like-named read-outs stand apart in the source and are kept apart here.

`CC(C)(C)C[C@H](NC(=O)OCc1ccccc1)C(=O)N[C@H](C=O)C[C@@H]1CCNC1=O` [MPI50]: on SARS-CoV-2 M^Pro [1], the pIC50 (as a rule, the IC50 on a negative log10 scale, so that one unit is a factor of ten) is 7.28. For `CC1(C)[C@@H]2[C@@H](C(=O)N[C@H](C=O)C[C@@H]3CCNC3=O)N(C(=O)OC(c3ccccc3)c3ccccc3)C[C@@H]21` [MPI94], in assay [2], the pEC50 (usually −log10 of the EC50, conventionally taken in molar units) was 6.05.

Take `CC1(C)[C@@H]2[C@@H](C(=O)N[C@H](C=O)C[C@@H]3CCNC3=O)N(C(=O)OC(c3ccc(F)cc3)c3ccc(F)cc3)C[C@@H]21` [MPI95]: in assay [2], the pEC50 is 6.04. On the same count and under the same terms, under `CC1(C)[C@@H]2[C@@H](C(=O)N[C@H](C=O)C[C@@H]3CCNC3=O)N(C(=O)C(c3ccc(Cl)cc3)c3ccc(Cl)cc3)C[C@@H]21` [MPI96] stands 5.54; under `CC1(C)[C@@H]2[C@@H](C(=O)N[C@H](C=O)C[C@@H]3CCNC3=O)N(C(=O)N(c3ccc(Cl)cc3)c3ccc(Cl)cc3)C[C@@H]21` [MPI97], 5.96.

As for `CC1(C)[C@@H]2[C@@H](C(=O)N[C@H](C=O)C[C@@H]3CCNC3=O)N(C(=O)C(Oc3ccc(Cl)cc3)Oc3ccc(Cl)cc3)C[C@@H]21` [MPI98], in assay [2], the pEC50 was 6.31. Regarding `CC1(C)[C@@H]2[C@@H](C(=O)N[C@H](C=O)C[C@@H]3CCNC3=O)N(C(=O)[C@H](Cc3ccccc3)NC(=O)OCc3ccccc3)C[C@@H]21` [MPI99], at SARS-CoV-2 M^Pro [3], the pIC50 was 6.57. In assay [2], the pEC50 was less than 5.30. With `CC1(C)[C@@H]2[C@@H](C(=O)N[C@H](C=O)C[C@@H]3CCNC3=O)N(C(=O)[C@H](CC3CCCCC3)NC(=O)OCc3ccccc3)C[C@@H]21` [MPI100], the pEC50 in assay [2] is 6.85. In turn, `CC(C)(C)C[C@H](NC(=O)OCc1cccnc1)C(=O)N[C@H](C=O)C[C@@H]1CCNC1=O` [MPI101] showed a pIC50 on SARS-CoV-2 M^Pro [3] of 7.70. In addition, the pEC50 in assay [2] was less than 5.30.

`CC1(C)[C@@H]2[C@@H](C(=O)N[C@H](C=O)C[C@@H]3CCNC3=O)N(C(=O)OCc3cccnc3)C[C@@H]21` [MPI102] showed a pIC50 against SARS-CoV-2 M^Pro [3] of 7.55. Moreover, the pEC50 in assay [2] was less than 5.30.

The molecule `CC1(C)[C@@H]2[C@@H](C(=O)N[C@H](C#N)C[C@@H]3CCNC3=O)N(C(=O)OCc3cccnc3)C[C@@H]21` [MPI103] gave a pIC50 against SARS-CoV-2 M^Pro [3] of 7.55. In addition, the pEC50 in assay [2] is less than 5.30.

`CC(C)(C)C[C@H](NC(=O)[C@@H]1CC[C@@H]1c1ccccc1)C(=O)N[C@H](C=O)C[C@@H]1CCNC1=O` [MPI104]: the pIC50 against SARS-CoV-2 M^Pro [3] was 7.10. Further, the negative logarithm of the EC50 (pEC50) in assay [2] was less than 5.30.

Turning to `CC(C)(C)C[C@H](NC(=O)N1CC[C@@H]1c1ccccc1)C(=O)N[C@H](C=O)C[C@@H]1CCNC1=O` [MPI105], the pIC50 on SARS-CoV-2 M^Pro [3] is 7.41. Besides, in assay [2], the negative logarithm of the EC50 (pEC50) is less than 5.30. Regarding `CC1(C)[C@@H]2[C@@H](C(=O)N[C@H](C#N)C[C@@H]3CCNC3=O)N(C(=O)[C@@H](NC(=O)C(F)(F)F)c3ccc(Cl)cc3)C[C@@H]21` [MPI106], in assay [2], the pEC50 was less than 5.30. The same measure, in the same setting: under `CC1(C)[C@@H]2[C@@H](C(=O)N[C@H](C#N)C[C@@H]3CCNC3=O)N(C(=O)[C@@H](NC(=O)C(F)(F)F)c3ccc(Cl)c(Cl)c3)C[C@@H]21` [MPI108] stands less than 5.30.
